Measured values taken from article PMC9525273 (Nature Communications, 2022).
Where “and” joins values, the source holds several entries; their conditions need not be identical. Equal entries are not always repeated. Where two headings read alike, the source gives them in different places.

Legend:
[1] = test system: parasite lines with a G358S mutation in PfATP4; test: P. falciparum proliferation assays, statements on all lines with the G358S mutation; type: cell-based, Plasmodium falciparum; details: Plasmodium falciparum; all parasite lines with a G358S mutation in PfATP4 tested in this study
How it was run: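 Ring-stage P. falciparum cultures (0.3% parasitaemia, 1% haematocrit; NF54 in 10% O+ human serum) were exposed 72 h with DMSO <0.5% (v/v), and survival was read by flow cytometry using SYBR Green I plus MitoTracker Deep Red. IC50/IC90 came from linear interpolation. Other lines started at 1% parasitaemia/1% haematocrit with fluorescent DNA-dye readout.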

[2] = test system: extracellular T. gondii tachyzoites expressing TgATP4^G419S-HA; test: [Na+]cyt measurement (SBFI), Na+ dysregulation; type: cell-based, Toxoplasma gondii; parameters: Final [Na+]cyt reached: unit not given here; details: TgATP4G419S-HA; for IC50: Toxoplasma gondii
Experimental: (§1) The ratio of the fluorescence intensity recorded at 340 nm and 380 nm (with an emission wavelength of 515 nm) was converted to [Na^+]cyt using a calibration procedure that entailed suspending parasites in solutions of varying [Na^+] containing ionophores. Fluorescence measurements and calibrations were performed at 37 °C, either with individual 1 mL suspensions using a PerkinElmer LS 50B fluorescence spectrometer (for resting [Na^+]cyt measurements for which the data are shown in Supplementary Fig. 7) or in 96-well plates using a Tecan Infinite M1000 PRO plate reader with i-control (version 1.12) software (all other [Na^+]cyt measurements).

[3] = test system: extracellular T. gondii tachyzoites expressing TgATP4^WT; test: [Na+]cyt measurement (SBFI), Na+ dysregulation; type: cell-based, Toxoplasma gondii; parameters: Final [Na+]cyt reached: unit not given here
Experimental: as §1

## N#Cc1cc(NC(=O)[C@H]2c3ccccc3C(=O)N(CC(F)(F)F)[C@@H]2c2cccnc2)ccc1F [(+)-SJ733]
[1]
  IC50: > 9 µM
[2]; [(+)-SJ733] 19.5 nM, MEAN
  Final [Na+]cyt reached: 11.4
[2]; [(+)-SJ733] 39.1 nM, MEAN
  Final [Na+]cyt reached: 14.1
[2]; [(+)-SJ733] 39.1 nM, single experiments
  Final [Na+]cyt reached: 15.8 and 12.1 and 14.4
[2]; [(+)-SJ733] 78.1 nM, MEAN
  Final [Na+]cyt reached: 14.7
[2]; [(+)-SJ733] 78.1 nM, single experiments
  Final [Na+]cyt reached: 18.4 and 12.6 and 13.2
[2]; [(+)-SJ733] 156.3 nM, MEAN
  Final [Na+]cyt reached: 13.7
[2]; [(+)-SJ733] 156.3 nM, single experiments
  Final [Na+]cyt reached: 14.7 and 11.2 and 15.2
[2]; [(+)-SJ733] 312.5 nM, MEAN
  Final [Na+]cyt reached: 13.9
[2]; [(+)-SJ733] 312.5 nM, single experiments
  Final [Na+]cyt reached: 15.6 and 11.4 and 14.7
[2]; [(+)-SJ733] 625 nM, MEAN
  Final [Na+]cyt reached: 13.0
[2]; [(+)-SJ733] 625 nM, single experiments
  Final [Na+]cyt reached: 14.4 and 12.2 and 12.5
[2]; [(+)-SJ733] 2500 nM, MEAN
  Final [Na+]cyt reached: 13.7
[2]; [(+)-SJ733] 2500 nM, single experiments
  Final [Na+]cyt reached: 15.4 and 12.6 and 13.0
[2]; [(+)-SJ733] 5000 nM, MEAN
  Final [Na+]cyt reached: 13.4
[2]; [(+)-SJ733] 5000 nM, single experiments
  Final [Na+]cyt reached: 14.6 and 12.4 and 13.1
[2]; [(+)-SJ733] 10000 nM, MEAN
  Final [Na+]cyt reached: 12.1
[2]; [(+)-SJ733] 10000 nM, single experiments
  Final [Na+]cyt reached: 13.0 and 11.9 and 11.5
[2]; [(+)-SJ733] 20000 nM, MEAN
  Final [Na+]cyt reached: 12.6
[2]; [(+)-SJ733] 20000 nM, single experiments
  Final [Na+]cyt reached: 13.7 and 11.8 and 12.3
[2]; [(+)-SJ733] 40000 nM, MEAN
  Final [Na+]cyt reached: 11.6
[2]; [(+)-SJ733] 40000 nM, single experiments
  Final [Na+]cyt reached: 12.7 and 10.4 and 11.7
[2]; 1.5 h, ~90 min exposure, 37 °C, pH 7.1, read-out: IC50 for Na+ dysregulation
  IC50: > 40000 nM
[2]; MEAN, source data of Table 1 (nM there), read-out: IC50 for Na+ dysregulation, MEAN
  IC50: > 40000 nM
[2]; single experiments, source data of Table 1 (nM there), read-out: IC50 for Na+ dysregulation
  IC50: > 40000 nM
[3]; Toxoplasma gondii, 1.5 h, pH 7.1, WT T. gondii (TgATP4WT), ~90 min exposure, 37 °C, pH 7.1, mean ± SEM, read-out: IC50 for Na+ dysregulation
  IC50: 5040 ± 572 nM
[3]; Toxoplasma gondii, WT T. gondii, MEAN, source data of Table 1 (nM there), read-out: IC50 for Na+ dysregulation, MEAN
  IC50: 5040 nM
[3]; Toxoplasma gondii, WT T. gondii, single experiments, source data of Table 1 (nM there), read-out: IC50 for Na+ dysregulation
  IC50: 4900 nM
[3]; WT T. gondii, [(+)-SJ733] 19.5 nM, MEAN
  Final [Na+]cyt reached: 11.8
[3]; WT T. gondii, [(+)-SJ733] 39.1 nM, MEAN
  Final [Na+]cyt reached: 11.7
[3]; WT T. gondii, [(+)-SJ733] 78.1 nM, MEAN
  Final [Na+]cyt reached: 12.4
[3]; WT T. gondii, [(+)-SJ733] 156.3 nM, MEAN
  Final [Na+]cyt reached: 13.8
[3]; WT T. gondii, [(+)-SJ733] 312.5 nM, MEAN
  Final [Na+]cyt reached: 15.1
[3]; WT T. gondii, [(+)-SJ733] 625 nM, MEAN
  Final [Na+]cyt reached: 18.3
[3]; WT T. gondii, [(+)-SJ733] 2500 nM, MEAN
  Final [Na+]cyt reached: 32.1
[3]; WT T. gondii, [(+)-SJ733] 2500 nM, single experiments
  Final [Na+]cyt reached: 21.7 and 37.9 and 34.1 and 34.6
[3]; WT T. gondii, [(+)-SJ733] 5000 nM, MEAN
  Final [Na+]cyt reached: 48.9
[3]; WT T. gondii, [(+)-SJ733] 5000 nM, single experiments
  Final [Na+]cyt reached: 41.9 and 51.4 and 51.0
[3]; WT T. gondii, [(+)-SJ733] 10000 nM, MEAN
  Final [Na+]cyt reached: 65.1
[3]; WT T. gondii, [(+)-SJ733] 10000 nM, single experiments
  Final [Na+]cyt reached: 65.8 and 64.6 and 71.3 and 58.7
[3]; WT T. gondii, [(+)-SJ733] 20000 nM, MEAN
  Final [Na+]cyt reached: 76.4
[3]; WT T. gondii, [(+)-SJ733] 20000 nM, single experiments
  Final [Na+]cyt reached: 74.3 and 76.4 and 85.9 and 69.1
[3]; WT T. gondii, [(+)-SJ733] 40000 nM, MEAN
  Final [Na+]cyt reached: 81.2
[3]; WT T. gondii, [(+)-SJ733] 40000 nM, single experiments
  Final [Na+]cyt reached: 81.0 and 95.3 and 67.2
[3]; WT T. gondii, single experiments, source data of Table 1 (nM there), read-out: IC50 for Na+ dysregulation
  IC50: 4780 nM and 6620 nM and 3880 nM
